Laboratory results as given in US7183320B2, “Benzoylsulfonamides and sulfonylbenzamidines for use as antitumour agents” (Eli Lilly and Company, priority 2002, dated 2007).

system: HCT116 colon carcinoma cells; assay: HCT116 colon carcinoma cell growth inhibition (WST-1, 72 hr); assay type: cell-based, human; conditions: 72 hr exposure
Method: HCT116 Colon Carcinoma Cell Growth Inhibition
HCT116 colon carcinoma cells were grown monolayer culture in RPMI 1640 medium supplemented with 10% fetal bovine serum and 1% penicillin-streptomycin (GibcoBRL, Grand Island, N.Y.). HCT116 cells in exponential growth phase were exposed to various concentrations of the test compounds at 37° C. for 72 hr in 5% carbon dioxide/air. After exposure to the agent, the cells were washed with 0.9% phosphate buffered saline. Growth inhibition was determined using WST-1 cell proliferation reagent as described above. The results are expressed as the growth fraction of treated cells compared with control cultures. Representative compounds of the present invention were tested for efficacy against the human colon HCT116 tumor cells.

Q: `CSc1ccc(-c2ccc(S(=O)(=O)NC(=O)c3ccc(Cl)cc3Cl)cc2)cc1` [Example 108, N-[2,4-dichlorobenzoyl]-4-(1-methylsulfanylo-phen-4-yl)phenylsulfonamide] was tested. Which IC50 did it give?
A: 16 µM

Q: With `COC(=O)c1ccc(-c2ccc(S(=O)(=O)NC(=O)c3ccc(Cl)cc3Cl)cc2)cc1` [Example 123, N-[2,4-dichlorobenzoyl]-4-(1-methoxycarbonyl-phen-4-yl)phenylsulfonamide] as the compound, how does the IC50 read?
A: 37.7 µM

Q: How did the IC50 turn out when `COC(=O)c1ccc(S(=O)(=O)NC(=O)c2ccc(Cl)cc2Br)cc1` [Example 30, N-[2-bromo-4-chlorobenzoyl]-4-methyoxycarbonyl-phenylsulfonamide] was run?
A: 10.1 µM

Q: `COc1ccccc1-c1ccc(S(=O)(=O)NC(=O)c2ccc(Cl)cc2Cl)cc1` [Example 122, N-[2,4-dichlorobenzoyl]-4-(1-methoxy-phen-2-yl)phenylsulfonamide] was tested. Which IC50 did it give?
A: 25.8 µM

Q: How did the IC50 turn out when `CC(=O)c1cccc(-c2ccc(S(=O)(=O)NC(=O)c3ccc(Cl)cc3Cl)cc2)c1` [Example 109, N-[2,4-dichlorobenzoyl]-4-3′-acetyl-biphenylsulfonamide] was run?
A: 25.1 µM

same assay, conditions: Homo sapiens, HCT-116, 72 hr exposure

Q: For `COc1ccc(S(=O)(=O)NC(=O)c2ccc(Cl)cc2Cl)cc1` [Example 3, N-[2,4-dichlorobenzoyl]-4-methoxyphenylsulfonamide], which IC50 is on record?
A: 2.5 µM

Q: `COc1cc(C)ccc1S(=O)(=O)NC(=O)c1ccc(Cl)cc1C` [Example 44, N-[2-methyl-4-chlorobenzoyl]-2-methoxy-4-methylphenylsulfonamide] was tested. Which IC50 did it give?
A: 18.7 µM

Q: Which IC50 does the source give for `Cc1cccc(S(=O)(=O)NC(=O)c2ccc(Cl)cc2C)c1` [Example 55, N-[2-methyl-4-chlorobenzoyl]-3-methylphenylsulfonamide] here?
A: 9.5 µM

Q: Which IC50 does the source give for `CCc1ccc(S(=O)(=O)NC(=O)c2ccc(Cl)cc2C)cc1` [Example 70, N-[2-methyl-4-chlorobenzoyl]-4-ethylphenylsulfonamide] here?
A: 16.9 µM

Q: `O=C(NS(=O)(=O)c1ccc(Br)cc1)c1ccc(Cl)cc1Cl` [Example 94, N-[2,4-dichlorobenzoyl]-4-bromophenylsulfonamide] was tested. Which IC50 did it give?
A: 3.6 µM

Q: How did the IC50 turn out when `O=C(NS(=O)(=O)c1ccc(F)c(Cl)c1)c1ccc(Cl)cc1Cl` [Example 9, N-[2,4-dichlorobenzoyl]-3-chloro-4-fluorophenylsulfonamide] was run?
A: 1.7 µM

Q: With `O=C(NS(=O)(=O)c1ccc(C(F)(F)F)cc1)c1ccc(Cl)cc1Cl` [Example 81, N-[2,4-dichlorobenzoyl]-4-trifluoromethyl-phenylsulfonamide] as the compound, how does the IC50 read?
A: 11.3 µM

Q: How did the IC50 turn out when `Cc1cc(Cl)ccc1C(=O)NS(=O)(=O)c1ccc(F)cc1` [Example 42, N-[2-methyl-4-chlorobenzoyl]-4-fluorophenylsulfonamide] was run?
A: 3.3 µM

Q: Which IC50 does the source give for `N=C(NS(=O)(=O)c1ccc(F)c(Cl)c1)c1ccc(Cl)cc1` [Example 115, N-[3-chloro-4-fluorophenylsulfonyl]-4-chlorobenzamidine] here?
A: 33.6 µM

Q: `O=C(NS(=O)(=O)c1ccc(O)cc1)c1ccc(Cl)cc1Cl` [Example 82, N-[2,4-dichlorobenzoyl]-4-hydroxyphenyl-sulfonamide] was tested. Which IC50 did it give?
A: 12.4 µM

Q: With `CC(C)c1ccc(S(=O)(=O)NC(=O)c2ccc(Br)cc2Cl)cc1` [Example 64, N-[2-chloro-4-bromobenzoyl]-4-isopropylphenyl-sulfonamide] as the compound, how does the IC50 read?
A: 18.2 µM

Q: `Cc1ccc(S(=O)(=O)NC(=O)c2ccc(Cl)cc2Cl)cc1` [Example 86, N-[2,4-dichlorobenzoyl]-4-methylphenylsulfonamide] was tested. Which IC50 did it give?
A: 1.6 µM

Q: For `Cc1cccc(C(=O)NS(=O)(=O)c2ccc(Cl)cc2)c1Cl` [Example 102, N-[2-chloro-3-methylbenzoyl]-4-chlorophenylsulfonamide], which IC50 is on record?
A: 6.3 µM

Q: Which IC50 does the source give for `Cc1ccc(S(=O)(=O)NC(=O)c2ccc(C)cc2C(F)(F)F)cc1` [Example 79, N-[2-trifluoromethyl-4-methylbenzoyl]-4-methylphenyl-sulfonamide] here?
A: 5.2 µM

Q: `Cc1ccc(S(=O)(=O)NC(=O)c2ccc(Cl)cc2C)cc1Cl` [Example 45, N-[2-methyl-4-chlorobenzoyl]-3-chloro-4-methylphenylsulfonamide] was tested. Which IC50 did it give?
A: 20.7 µM

Q: Which IC50 does the source give for `Cc1cccc(S(=O)(=O)NC(=O)c2ccc(Br)cc2C)c1` [Example 37, N-[2-methyl-4-bromobenzoyl]-3-methylphenylsulfonamide] here?
A: 15.5 µM

Q: With `Cc1cc(Br)ccc1C(=O)NS(=O)(=O)c1ccc(F)c(Cl)c1` [Example 35, N-[2-methyl-4-bromobenzoyl]-3-chloro-4-fluorophenylsulfonamide] as the compound, how does the IC50 read?
A: 17 µM

Q: For `CC(C)(C)c1ccc(S(=O)(=O)NC(=O)c2ccc(Br)cc2Br)cc1` [Example 5, N-[2,4-dibromobenzoyl]-4-tert-butylphenylsulfonamide], which IC50 is on record?
A: 3.8 µM

Q: Which IC50 does the source give for `O=C(NS(=O)(=O)c1ccc(Cl)cc1)c1ccc(Br)cc1Br` [Example 6, N-[2,4-dibromobenzoyl]-4-chlorophenylsulfonamide] here?
A: 4 µM

Q: How did the IC50 turn out when `CC(C)(C)c1ccc(S(=O)(=O)NC(=O)c2ccc(Cl)cc2Br)cc1` [Example 33, N-[2-bromo-4-chlorobenzoyl]-4-tert-butylphenylsulfonamide] was run?
A: 7.8 µM

Q: `O=C(NS(=O)(=O)c1ccc(F)c(F)c1)c1ccc(C(F)(F)F)cc1C(F)(F)F` [Example 53, N-[2,4-bis-trifluoromethylbenzoyl]-3,4-difluorophenyl-sulfonamide] was tested. Which IC50 did it give?
A: 11.2 µM

Q: With `CN(C)c1ccc(S(=O)(=O)NC(=O)c2ccc(Cl)cc2Cl)cc1` [Example 98, N-[2,4-dichlorobenzoyl]-4-dimethylaminophenyl-sulfonamide] as the compound, how does the IC50 read?
A: 13 µM

Q: Which IC50 does the source give for `CSc1ccc(S(=O)(=O)NC(=O)c2ccc(Cl)cc2Cl)cc1` [Example 87, N-[2,4-dichlorobenzoyl]-4-methylthiophenylsulfonamide] here?
A: 5.5 µM

Q: Which IC50 does the source give for `O=C(NS(=O)(=O)c1ccc(Cl)c(Cl)c1)c1ccc(Cl)cc1Cl` [Example 92, N-[2,4-dichlorobenzoyl]-3,4-dichlorophenylsulfonamide] here?
A: 17.4 µM

Q: `Cc1ccc(S(=O)(=O)NC(=O)c2ccc(Cl)cc2Cl)cc1Cl` [Example 89, N-[2,4-dichlorobenzoyl]-3-chloro-4-methylphenylsulfonamide] was tested. Which IC50 did it give?
A: 4.8 µM

Q: For `COC(=O)c1cc(S(=O)(=O)NC(=O)c2ccc(Cl)cc2Br)ccc1OC` [Example 32, N-[2-bromo-4-chlorobenzoyl]-3-methoxycarbonyl-4-methoxyphenylsulfonamide], which IC50 is on record?
A: 7.8 µM

Q: With `Cc1ccc(C(=O)NS(=O)(=O)c2ccc(F)c(Cl)c2)c(Cl)c1` [Example 59, N-[2-chloro-4-methylbenzoyl]-3-chloro-4-fluorophenyl-sulfonamide] as the compound, how does the IC50 read?
A: 15 µM

Q: For `O=C(NS(=O)(=O)c1ccc(Cl)cc1)c1ccc(Cl)cc1Cl` [Example 111, N-[2,4-dichlorobenzoyl]-4-chlorophenylsulfonamide], which IC50 is on record?
A: 15 µM

Q: How did the IC50 turn out when `O=C(NS(=O)(=O)c1ccc([N+](=O)[O-])cc1)c1ccc(Cl)cc1Cl` [Example 103, N-[2,4-dichlorobenzoyl]-4-nitrophenylsulfonamide] was run?
A: 11.9 µM

Q: Which IC50 does the source give for `Cc1cc(Cl)ccc1C(=O)NS(=O)(=O)c1ccc(C(C)(C)C)cc1` [Example 105, N-[2-methyl-4-chlorobenzoyl]-4-tert-butylphenylsulfonamide] here?
A: 14.8 µM

Q: Which IC50 does the source give for `O=C(NS(=O)(=O)c1cccc(Br)c1)c1ccc(Cl)cc1Cl` [Example 1, N-[2,4-dichlorobenzoyl]-3-bromophenylsulfonamide] here?
A: 4.2 µM

Q: How did the IC50 turn out when `O=C(NS(=O)(=O)c1ccc(-c2ccco2)cc1)c1ccc(Cl)cc1Cl` [Example 121, N-[2,4-dichloro-benzoyl]-4-furan-2-yl-phenylsulfonamide] was run?
A: 24.5 µM

Q: With `O=C(NS(=O)(=O)c1ccc(-c2cccc3cccnc23)cc1)c1ccc(Cl)cc1Cl` [Example 124, N-[2,4-dichlorobenzoyl]-4-quinolin-8-yl-phenylsulfonamide] as the compound, how does the IC50 read?
A: 5.6 µM

Q: How did the IC50 turn out when `Cc1cc(Cl)ccc1C(=O)NS(=O)(=O)c1ccccc1` [Example 60, N-[2-methyl-4-chlorobenzoyl]-phenylsulfonamide] was run?
A: 6.6 µM

Q: With `O=C(NS(=O)(=O)c1cccc(F)c1)c1ccc(Cl)cc1Cl` [Example 26, N-[2,4-dichlorobenzoyl]-3-fluorophenylsulfonamide] as the compound, how does the IC50 read?
A: 6.1 µM

Q: `CC(C)(C)c1ccc(S(=O)(=O)NC(=O)c2ccc(Cl)cc2Cl)cc1` [Example 88, N-[2,4-dichlorobenzoyl]-4-tert-butylphenylsulfonamide] was tested. Which IC50 did it give?
A: 4.8 µM

Q: How did the IC50 turn out when `Cc1cc(Cl)ccc1C(=O)NS(=O)(=O)c1ccc(Cl)c(Cl)c1` [Example 104, N-[2-methyl-4-chlorobenzoyl]-3,4-dichlorophenylsulfonamide] was run?
A: 22.2 µM

Q: `CS(=O)(=O)Oc1ccc(S(=O)(=O)NC(=O)c2ccc(Cl)cc2Cl)cc1` [Example 95, N-[2,4-dichlorobenzoyl]-4-methylsulfonyloxyphenyl-sulfonamide] was tested. Which IC50 did it give?
A: 4.3 µM

Q: `O=C(NS(=O)(=O)c1ccc(Br)c(Br)c1)c1ccc(Cl)cc1Cl` [Example 24, N-[2,4-dichlorobenzoyl]-3,4-dibromophenylsulfonamide] was tested. Which IC50 did it give?
A: 37.1 µM

Q: `COc1cccc(S(=O)(=O)NC(=O)c2ccc(Cl)cc2Cl)c1` [Example 80, N-[2,4-dichlorobenzoyl]-3-methoxyphenyl-sulfonamide] was tested. Which IC50 did it give?
A: 12.3 µM

Q: `O=C(NS(=O)(=O)c1ccc(Cl)cc1)c1ccc(C(F)(F)F)cc1C(F)(F)F` [Example 99, N-[2,4-bis-trifluoromethylbenzoyl]-4-chlorophenylsulfonamide] was tested. Which IC50 did it give?
A: 33.5 µM

Q: Which IC50 does the source give for `O=C(NS(=O)(=O)c1ccc(OC(F)(F)F)cc1)c1ccc(Cl)cc1Cl` [Example 96, N-[2,4-dichlorobenzoyl]-4-trifluoromethoxyphenyl-sulfonamide] here?
A: 34.7 µM

Q: `COc1ccc(S(=O)(=O)NC(=O)c2ccc(Br)cc2Cl)cc1` [Example 18, N-[2-chloro-4-bromobenzoyl]-4-methoxyphenylsulfonamide] was tested. Which IC50 did it give?
A: 9.3 µM

Q: With `O=C(NS(=O)(=O)c1cccc(C(F)(F)F)c1)c1ccc(Cl)cc1Cl` [Example 25, N-[2,4-dichlorobenzoyl]-3-trifluoromethyl-phenylsulfonamide] as the compound, how does the IC50 read?
A: 9.6 µM
